Measured values published in ChEMBL document CHEMBL1159359, “A new phytotoxic nonenolide from Phoma herbarum” (J Nat Prod, 2003).
The source made the active and inactive calls. The calls are words filed in the database; no cut-off is given here.

Tests used:
[1] = Inhibition of bovine brain calmodulin-dependent cyclic nucleotide phosphodiesterase after 30 min; design: species or system Bos taurus
Calmodulin (Bos taurus) = Calmodulin (Bos taurus) (UniProt P62157); test: Binding affinity to bovine brain calmodulin assessed as decrease in electrophoretic mobility at 0.033 ug/ml for 1.5 hrs by SDS-PAGE in presence of Ca2+ ions
[2] = test system: Amaranthus hypochondriacus; test: Phytotoxicity against Amaranthus hypochondriacus seedlings assessed as inhibition of radical growth at 28 degC by petri dish assay; type: functional, organism-based

Row | SMILES | IC50 [1] [µM] | Activity (Calmodulin (Bos taurus)) | IC50 [2] [µM]
1 | O=C(O)COc1ccc(Cl)cc1Cl [2,4-DICHLOROPHENOXYACETIC ACID] |  |  | 200
2 | CN(C)CCCN1c2ccccc2Sc2ccc(Cl)cc21 [CHLORPROMAZINE] | 9.8 |  | 

Further lines, with some results ahead:

Row | IC50 [1] [µM] | Activity (Calmodulin (Bos taurus)) | SMILES | IC50 [2] [µM]
3 | 14.2 | Active | CCC[C@H]1OC(=O)CCC/C=C/[C@H](O)[C@@H]1O [HERBARUMIN I] | 
4 |  | Active | CCC[C@@H]1C[C@@H](O)/C=C/CCCC(=O)O1 [HERBARUMIN III] | 20
5 | 6.6 | Active | CCC[C@H]1OC(=O)[C@H](O)CC/C=C/[C@H](O)[C@@H]1O [HERBARUMIN II] | 
